In DBAASP one finds MIC data, which are given here for 15 compounds.

In brackets after ≈: the same amount, converted by molar mass.

Assay in all cases: ≥ marks a high value that may be exact or a test limit, other limits are often not marked, values filed in µg/mL are converted to µM
Assay [1] concerns Pseudomonas aeruginosa ATCC 9027.
In assay [2] the test system is Staphylococcus aureus ATCC 6538.
Assay [3] concerns Staphylococcus aureus ATCC 2592.
In assay [4] the test system is Bacillus subtilis ATCC 6633.
The test system of assay [5] is Klebsiella pneumoniae.
The subject of assay [6] is Staphylococcus aureus ATCC 25923.
The subject of assay [7] is Salmonella enterica subsp. enterica serovar Typhimurium ATCC 14028.
Assay [8] concerns Escherichia coli ATCC 25922.
For assay [9], the system named is Pseudomonas aeruginosa ATCC 27853.
The test system of assay [10] is Pseudomonas aeruginosa PAO1.
In assay [11] the test system is Staphylococcus aureus USA 300.
The test system of assay [12] is Candida albicans ATCC 90028.
Assay [13] deals with Staphylococcus aureus ATCC 29213.
Assay [14] concerns Bacillus subtilis.
The subject of assay [15] is Candida albicans ATCC 2002.
The test system of assay [16] is Enterococcus faecalis ATCC 29212.

With `CC(C)C[C@H](NC(=O)[C@H](CCCCN)NC(=O)[C@H](CCCCN)NC(=O)[C@H](CC(C)C)NC(=O)[C@H](C)NC(=O)[C@H](CCCCN)NC(=O)[C@H](CC(C)C)NC(=O)[C@H](C)NC(=O)[C@H](CCCCN)NC(=O)[C@H](CCCCN)NC(=O)[C@H](C)NC(=O)[C@@H](N)Cc1ccccc1)C(N)=O` [FAKKALKALKKL], the MIC (in general, the lowest concentration found to suppress growth) in [1] stood at 73.6 µM (≈ 99.9 µg/mL); in assay [2] it was 147 µM (≈ 200 µg/mL).
Take `CC(C)C[C@H](NC(=O)[C@H](CC(C)C)NC(=O)[C@H](C)NC(=O)[C@H](CCCCN)NC(=O)[C@H](C)NC(=O)[C@H](CC(C)C)NC(=O)[C@H](CCCCN)NC(=O)[C@H](CCCCN)NC(=O)[C@H](C)NC(=O)[C@@H](N)Cc1ccccc1)C(N)=O` [FAKKLAKALL]: the MIC in assay [1] and in [2] was 90.7 µM (≈ 99.9 µg/mL) each time.
Turning to `CC(C)C[C@H](NC(=O)[C@H](CCCCN)NC(=O)[C@H](C)NC(=O)[C@H](CC(C)C)NC(=O)[C@H](CCCCN)NC(=O)[C@H](CC(C)C)NC(=O)[C@H](C)NC(=O)[C@H](CC(C)C)NC(=O)[C@H](CCCCN)NC(=O)[C@H](C)NC(=O)[C@H](CC(C)C)NC(=O)[C@H](CCCCN)NC(=O)[C@H](CCCCN)NC(=O)[C@H](C)NC(=O)[C@@H](N)Cc1ccccc1)C(N)=O` [FAKKLAKLALKLAKL], the MIC in assay [1] and in assay [2] was 3.02 µM (≈ 5 µg/mL) in each case.
On to `CC(C)C[C@H](NC(=O)[C@H](C)NC(=O)[C@H](CCCCN)NC(=O)[C@H](CCCCN)NC(=O)[C@H](C)NC(=O)[C@H](CC(C)C)NC(=O)[C@H](CCCCN)NC(=O)[C@H](C)NC(=O)[C@H](CC(C)C)NC(=O)[C@H](CC(C)C)NC(=O)[C@H](CCCCN)NC(=O)[C@H](C)NC(=O)[C@@H](N)Cc1ccccc1)C(N)=O` [FAKLLAKLAKKAL], for which the MIC in assay [1] worked out at 35.3 µM (≈ 50 µg/mL); in [2], 3.53 µM (≈ 5 µg/mL).
The matching figures for `CC(C)C[C@H](NC(=O)[C@H](CCCCN)NC(=O)[C@H](CC(C)C)NC(=O)[C@H](CCCCN)NC(=O)[C@H](CC(C)C)NC(=O)[C@H](C)NC(=O)[C@H](CC(C)C)NC(=O)[C@H](C)NC(=O)[C@H](CC(C)C)NC(=O)[C@H](CC(C)C)NC(=O)[C@H](CCCCN)NC(=O)[C@H](C)NC(=O)[C@@H](N)Cc1ccccc1)C(N)=O` [FAKLLALALKLKL]: > 139 µM and 6.94 µM (≈ 9.99 µg/mL).
As for `CC(C)C[C@H](NC(=O)[C@H](C)NC(=O)[C@H](CCCCN)NC(=O)[C@H](CCCCN)NC(=O)[C@H](CC(C)C)NC(=O)[C@H](C)NC(=O)[C@H](CCCCN)NC(=O)[C@H](CCCCN)NC(=O)[C@H](CC(C)C)NC(=O)[C@H](CCCCN)NC(=O)[C@H](CCCCN)NC(=O)[C@H](CC(C)C)NC(=O)[C@H](C)NC(=O)[C@H](CCCCN)NC(=O)[C@H](CCCCN)NC(=O)[C@H](CC(C)C)NC(=O)[C@H](C)NC(=O)[C@H](CCCCN)NC(=O)[C@H](CC(C)C)NC(=O)[C@H](C)NC(=O)[C@H](CC(C)C)NC(=O)[C@H](C)NC(=O)[C@@H](N)Cc1ccccc1)C(N)=O` [FALALKALKKALKKLKKALKKAL], the values for the MIC in assay [1] and in [2] were 39.4 µM (≈ 100 µg/mL) and 9.85 µM (≈ 25 µg/mL), respectively.
Regarding `CC[C@H](C)[C@H](NC(=O)CNC(=O)[C@H](C)NC(=O)[C@@H](NC(=O)[C@H](CC(C)C)NC(=O)CNC(=O)[C@@H]1CCCN1C(=O)[C@H](CC(C)C)NC(=O)[C@@H](N)Cc1ccccc1)[C@@H](C)CC)C(=O)N[C@@H](C)C(=O)N[C@@H](CCCCN)C(=O)N[C@@H](CCSC)C(=O)N[C@@H](CC(C)C)C(N)=O` [FLPGLIAGIAKML], the figures for the MIC in assay [3] and in assay [4] were 9.3 µM (≈ 12.5 µg/mL) and 18.6 µM (≈ 25 µg/mL), respectively.
On to `CC[C@H](C)[C@H](NC(=O)CN)C(=O)NCC(=O)N[C@@H](CCCCN)C(=O)N[C@@H](Cc1cnc[nH]1)C(=O)N[C@H](C(=O)NCC(=O)N[C@@H](CCCCN)C(=O)N[C@@H](C)C(=O)N[C@@H](CC(C)C)C(=O)N[C@@H](CCCCN)C(=O)NCC(=O)N[C@@H](CC(C)C)C(=O)N[C@@H](CCCCN)C(=O)NCC(=O)N[C@@H](CC(C)C)C(=O)N[C@@H](CC(C)C)C(=O)N[C@@H](CCCCN)C(=O)NCC(=O)N[C@@H](CC(C)C)C(=O)NCC(=O)N[C@@H](CCC(=O)O)C(=O)N[C@@H](CS)C(=O)O)C(C)C` [GIGKHVGKALKGLKGLLKGLGEC], for which the MIC in [5] is 1 µM (≈ 2.28 µg/mL); in assay [6], ≥ 128 µM; in assay [7], 1 µM (≈ 2.28 µg/mL); in assay [8], 0.707 µM (≈ 1.61 µg/mL); in assay [9], 2 µM (≈ 4.55 µg/mL).
For the compound `CC(C)C[C@H](NC(=O)[C@H](CC(C)C)NC(=O)[C@H](CCCCN)NC(=O)CNC(=O)[C@H](C)NC(=O)[C@H](C)NC(=O)[C@H](CCCCN)NC(=O)[C@H](C)NC(=O)[C@H](C)NC(=O)[C@H](CO)NC(=O)[C@H](CC(C)C)NC(=O)[C@H](CC(C)C)NC(=O)CN)C(N)=O` [GLLSAAKAAGKLL], the results for the MIC in [10], in assay [8] and in assay [11] were > 25 µM, > 25 µM and 25 µM (≈ 30.3 µg/mL), respectively.
`CC(C)C[C@H](NC(=O)[C@H](CC(C)C)NC(=O)[C@H](CCCCN)NC(=O)CNC(=O)[C@H](CC(C)C)NC(=O)[C@H](CC(C)C)NC(=O)[C@H](CO)NC(=O)[C@H](CC(C)C)NC(=O)[C@H](CO)NC(=O)[C@H](CC(C)C)NC(=O)[C@H](CC(C)C)NC(=O)CN)C(N)=O` [GLLSLSLLGKLL]: the MIC in assay [10] was > 25 µM; in assay [8], 25 µM (≈ 30.6 µg/mL); in assay [11], 12.5 µM (≈ 15.3 µg/mL).
For `CC[C@H](C)[C@H](NC(=O)[C@H](C)NC(=O)[C@@H](N)CCCCN)C(=O)N[C@H](C(=O)N[C@@H](CCC(N)=O)C(=O)N[C@@H](CCCN=C(N)N)C(=O)N[C@H](C(=O)N[C@@H](CCCCN)C(=O)N[C@@H](CC(=O)O)C(=O)N[C@@H](Cc1ccccc1)C(=O)N[C@@H](CC(C)C)C(=O)N[C@@H](CCCN=C(N)N)C(=O)O)[C@@H](C)CC)C(C)C` [KAIVQRIKDFLR], the MIC in [12] is ≥ 40 µM; in assay [13], 40 µM (≈ 59.5 µg/mL); in assay [8], 40 µM (≈ 59.5 µg/mL); in assay [9] it was 40 µM (≈ 59.5 µg/mL).
On to `CC[C@H](C)[C@H](NC(=O)[C@H](CCCN=C(N)N)NC(=O)[C@@H](N)CCCCN)C(=O)N[C@H](C(=O)N[C@@H](CCC(N)=O)C(=O)N[C@@H](CCCN=C(N)N)C(=O)N[C@@H](C)C(=O)N[C@@H](CCCCN)C(=O)N[C@@H](CC(=O)O)C(=O)N[C@@H](Cc1ccccc1)C(=O)N[C@@H](CC(C)C)C(=O)N[C@@H](CCCN=C(N)N)C(=O)O)C(C)C` [KRIVQRAKDFLR], for which the MIC is ≥ 40 µM in assay [12], 40 µM (≈ 61.2 µg/mL) in [13], 40 µM (≈ 61.2 µg/mL) in [8] and 40 µM (≈ 61.2 µg/mL) in assay [9].
As for `CC[C@H](C)[C@H](NC(=O)[C@H](C)NC(=O)[C@H](CCCN=C(N)N)NC(=O)[C@H](Cc1ccc(O)cc1)NC(=O)[C@H](CC(C)C)NC(=O)[C@H](CC(N)=O)NC(=O)[C@H](Cc1ccc(O)cc1)NC(=O)CNC(=O)[C@H](C)NC(=O)[C@@H](NC(=O)[C@@H](NC(=O)[C@@H](NC(=O)[C@H](CCCN=C(N)N)NC(=O)[C@@H](NC(=O)[C@@H](NC(=O)[C@@H](NC(=O)[C@@H]1CCCN1C(=O)[C@H](Cc1c[nH]c2ccccc12)NC(=O)[C@H](Cc1ccccc1)NC(=O)[C@H](CCCN=C(N)N)NC(=O)[C@H](CCCCN)NC(=O)[C@@H](NC(=O)[C@@H](N)CCCN=C(N)N)[C@@H](C)CC)C(C)C)C(C)C)[C@@H](C)CC)[C@@H](C)O)C(C)C)C(C)C)C(=O)N[C@@H](CCCCN)C(=O)O` [RIKRFWPVVIRTVVAGYNLYRAIK], the MIC in assay [6] was determined as 2.41 µM (≈ 7.03 µg/mL); in assay [14], 1.61 µM (≈ 4.69 µg/mL); in assay [15], 0.201 µM (≈ 0.586 µg/mL); in assay [8], 0.803 µM (≈ 2.34 µg/mL).
On to `CC(C)C[C@H](NC(=O)[C@H](C)NC(=O)[C@H](CC(C)C)NC(=O)[C@H](CCCCN)NC(=O)[C@H](C)NC(=O)[C@H](CC(C)C)NC(=O)[C@H](CCCCN)NC(=O)[C@H](CCCCN)NC(=O)[C@H](C)NC(=O)[C@H](CC(C)C)NC(=O)[C@H](CCCCN)NC(=O)[C@H](C)NC(=O)[C@H](CC(C)C)NC(=O)[C@H](CCCCN)NC(=O)[C@H](CCCCN)NC(=O)[C@H](C)NC(=O)[C@@H](N)C(C)C)C(N)=O` [VAKKLAKLAKKLAKLAL], for which the MIC was determined as 8.3 µM (≈ 15 µg/mL) in assay [1] and 2.77 µM (≈ 5 µg/mL) in [2].
As for `CC[C@H](C)[C@H](NC(=O)[C@H](CCCCN)NC(=O)[C@H](CCCCN)NC(=O)[C@H](Cc1ccccc1)NC(=O)[C@H](CC(C)C)NC(=O)[C@H](CCCCN)NC(=O)[C@H](CCCCN)NC(=O)[C@@H](N)Cc1c[nH]c2ccccc12)C(=O)N[C@@H](CC(C)C)C(=O)N[C@@H](CCCCN)C(=O)N[C@@H](Cc1ccc(O)cc1)C(=O)N[C@@H](CC(C)C)C(N)=O` [WKKLFKKILKYL], the MIC in [13] turned out to be 1.49 µM (≈ 2.4 µg/mL); in assay [8], 0.746 µM (≈ 1.2 µg/mL); in assay [9], 2.11 µM (≈ 3.39 µg/mL); in [16], 2.98 µM (≈ 4.8 µg/mL).
